Assay results taken from US10844019B2, “1-phenyl-3-carbamoyl urea compound, and use thereof” (Sumitomo Chemical Company, Limited, priority 2016, dated 2020).

Tested on: cucumber phytophthora blight fungi (Phytophthora capsici)
Assay: Test for controlling cucumber phytophthora blight fungi (growth in PDB medium, absorbance at 600 nm)
Format: cell-based
Conditions: 4.5 mg in 100 μL dimethyl sulfoxide, 1 μL of it in 150 μL PDB medium with zoospores, 27° C., three days, Efficacy=100×(X−Y)/X
Procedure: Four point five (4.5) milligrams of the present compound was diluted with 100 μL of dimethyl sulfoxide. One (1) μL portion of the diluted liquid was dispensed into a titer plate (96 wells), and thereto was then dispensed 150 μL of a potato dextrose broth medium (PDB medium) containing zoospores of cucumber phytophthora blight fungi (Phytophthora capsici). This plate was cultured at 27° C. for three days, thereby allowing the cucumber phytophthora blight fungi to undergo proliferation, and the absorbance at 600 nm of each well of the titer plate was then measured to determine a degree of growth of the cucumber phytophthora blight fungi. The efficacy was calculated from the determined degree of growth by the below-mentioned “Equation 1”. As a result, the efficacy of the Present compound was 80% or more. Efficacy=100×(X−Y)/X “Equation 1” where X: Degree of fungal growth in non-treated area Y: Degree of fungal growth in treated area
In the test example, a non-treated area means an area in which a test was conducted in the same manner, except that dimethyl sulfoxide was dispensed in place of the present compound diluted with dimethyl sulfoxide.

CCOC(=O)COc1ncccc1Oc1cc(NC(=O)NC(N)=O)c(F)cc1Cl [Present compound]
Efficacy: ≥ 80%

CCOC(=O)COc1ncccc1Oc1cc(NC(C)=O)c(F)cc1Cl [N-[4-chloro-2-fluoro-5-{2-(ethoxycarbonyl)methoxy-3-pyridyloxy}phenyl]acetamide]
Efficacy: less than 50%
